According to article PMC11406361, “Several orphan solute carriers functionally identified as organic cation transporters: Substrates specificity compared with known cation transporters” (The Journal of Biological Chemistry, 2024):

Experiments:
hCMEC/D3 cell line = experiment: Antiport (exchange) of diphenhydramine and nalmefene in hCMEC/D3 cells; format: cell-based, human; conditions: hCMEC/D3 preloaded with DPH, within 2 min, unpublished data
SLC38A10 = SLC38A10 (Homo sapiens, UniProt Q9HBR0); experiment: Uptake ratio screen, SLC38A10-overexpressing HEK293 over empty vector cells; format: cell-based; design: by amplifying the entire gene-of-interest within the HEK293 genome via a long-range PCR; conditions: 2.5 μM, 2 min
Description: (§1) Typically discussed substrates of the proton organic-cation antiporter ([14]) are highlighted in dark green in Figure 1.
In preparation for transport experiments, 24-well plates were pre-coated with poly-D-lysine (Sigma-Aldrich) and 300,000 cells were plated per well and incubated for 48 h. Firstly, the 24-well plate was placed on a heating plate at 37 °C, and the cells were washed with 37 °C HBSS^+ buffer (Hank’s balanced salt solution supplemented with 10 mM Hepes and adjusted to pH 7.4; Thermo Fisher Scientific). The substance-of-interest, which was diluted in 37 °C HBSS^+ to a desired concentration, was added to the cells for exactly 2 min. […] For variations in seeded cell numbers between the cell lines, several wells were lysed in RIPA buffer and used for total protein quantification using a bicinchoninic assay ([74]) and bovine serum albumin as calibration.
The intracellular drug concentrations after transport experiments were analyzed by high-performance liquid chromatography coupled to tandem mass spectrometry analysis. […] After separation, the detection of substances was performed with an API 4000 tandem mass spectrometer (AB SCIEX, https://sciex.com/support/software-support/software-downloads), followed by quantification of results with the Analyst software (AB SCIEX, version 1.6.2). […]

SLC35E4 = target: T1, SLC35E4 (Homo sapiens, UniProt Q6ICL7); experiment: Uptake ratio screen, SLC35E4-overexpressing HEK293 over empty vector cells; format: cell-based; design: by amplifying the entire gene-of-interest within the HEK293 genome via a long-range PCR; conditions: 2.5 μM, 2 min
T1 sequence (Q6ICL7 1-350): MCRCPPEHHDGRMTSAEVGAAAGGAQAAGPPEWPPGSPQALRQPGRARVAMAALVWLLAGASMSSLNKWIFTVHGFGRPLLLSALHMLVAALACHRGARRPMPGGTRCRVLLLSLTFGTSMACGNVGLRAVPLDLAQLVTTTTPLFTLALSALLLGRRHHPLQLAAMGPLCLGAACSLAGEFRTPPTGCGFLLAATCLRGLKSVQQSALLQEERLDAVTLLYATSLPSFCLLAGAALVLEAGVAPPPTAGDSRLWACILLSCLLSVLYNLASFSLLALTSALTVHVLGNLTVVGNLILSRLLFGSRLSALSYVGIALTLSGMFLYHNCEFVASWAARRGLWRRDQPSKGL
Description: as §1
(§2) In preparation for transport experiments, 24-well plates were pre-coated with poly-D-lysine (Sigma-Aldrich) and 300,000 cells were plated per well and incubated for 48 h. Firstly, the 24-well plate was placed on a heating plate at 37 °C, and the cells were washed with 37 °C HBSS^+ buffer (Hank’s balanced salt solution supplemented with 10 mM Hepes and adjusted to pH 7.4; Thermo Fisher Scientific). The substance-of-interest, which was diluted in 37 °C HBSS^+ to a desired concentration, was added to the cells for exactly 2 min. […] The uptake was stopped with ice-cold HBSS^+, and the 24-well plate was removed from the heating plate. The cells were washed twice with the cold HBSS^+ before they were lysed for 15 min with 80% (v/v) acetonitrile containing the respective internal standard for mass spectrometry. For variations in seeded cell numbers between the cell lines, several wells were lysed in RIPA buffer and used for total protein quantification using a bicinchoninic assay ([74]) and bovine serum albumin as calibration.
(§3) The intracellular drug concentrations after transport experiments were analyzed by high-performance liquid chromatography coupled to tandem mass spectrometry analysis. The HPLC consisted of a Shimadzu Nexera HPLC System with a SIL-30AC autosampler, a LC-30AD pump, a CTO-20AC column oven, and a CBM-20A controller (Shimadzu). The reverse-phase chromatography of compounds was accomplished with a Brownlee SPP RP-Amide column with 4.6 × 100 mm inner dimensions, a particle size of 2.7 μm, and a preceding Phenomenex C-18 guard column. […] After separation, the detection of substances was performed with an API 4000 tandem mass spectrometer (AB SCIEX, https://sciex.com/support/software-support/software-downloads), followed by quantification of results with the Analyst software (AB SCIEX, version 1.6.2). […]
(§4) Transport-mediated net uptake was determined as fold-increase of transporter-overexpressing cells over empty vector–transfected control cells.

SLC35F4 = target: T2, SLC35F4 (Homo sapiens, UniProt A4IF30); experiment: Uptake ratio screen, SLC35F4-overexpressing HEK293 over empty vector cells; format: cell-based; design: by amplifying the entire gene-of-interest within the HEK293 genome via a long-range PCR; conditions: 2.5 μM, 2 min
T2 sequence (A4IF30 1-521): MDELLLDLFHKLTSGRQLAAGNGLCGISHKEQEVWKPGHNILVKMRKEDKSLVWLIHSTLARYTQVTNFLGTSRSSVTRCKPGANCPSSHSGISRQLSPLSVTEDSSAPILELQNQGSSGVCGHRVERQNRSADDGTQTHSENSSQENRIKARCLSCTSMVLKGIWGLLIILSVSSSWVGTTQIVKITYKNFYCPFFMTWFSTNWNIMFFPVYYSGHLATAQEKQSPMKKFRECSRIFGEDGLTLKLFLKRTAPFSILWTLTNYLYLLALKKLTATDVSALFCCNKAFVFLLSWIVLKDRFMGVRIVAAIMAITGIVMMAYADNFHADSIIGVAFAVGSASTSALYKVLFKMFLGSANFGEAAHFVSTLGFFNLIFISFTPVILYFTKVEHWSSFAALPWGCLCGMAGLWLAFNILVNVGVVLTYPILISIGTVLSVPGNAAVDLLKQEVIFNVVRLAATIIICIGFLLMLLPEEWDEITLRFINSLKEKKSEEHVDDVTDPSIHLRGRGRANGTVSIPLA
Description: as §1, §2
(§5) The intracellular drug concentrations after transport experiments were analyzed by high-performance liquid chromatography coupled to tandem mass spectrometry analysis. The HPLC consisted of a Shimadzu Nexera HPLC System with a SIL-30AC autosampler, a LC-30AD pump, a CTO-20AC column oven, and a CBM-20A controller (Shimadzu). The reverse-phase chromatography of compounds was accomplished with a Brownlee SPP RP-Amide column with 4.6 × 100 mm inner dimensions, a particle size of 2.7 μm, and a preceding Phenomenex C-18 guard column. The mobile phase was composed of an organic additive with acetonitrile:methanol 6:1 (v/v) in total concentrations between 3% and 50% (v/v) and 0.1% (v/v) formic acid in the aqueous component of the eluent. During separation, the column oven was held at 40 °C and the mobile phase was maintained at a flow rate of 300 or 400 μl/min. After separation, the detection of substances was performed with an API 4000 tandem mass spectrometer (AB SCIEX, https://sciex.com/support/software-support/software-downloads), followed by quantification of results with the Analyst software (AB SCIEX, version 1.6.2). The composition of chromatographic conditions, as well as detailed mass spectrometric detection parameters, are listed in Table S5.
as §4

SLC35G3 [1] = target: T3, SLC35G3 (Homo sapiens, UniProt Q8N808); experiment: Uptake ratio screen, SLC35G3-overexpressing HEK293 over empty vector cells; format: cell-based; design: by amplifying the entire gene-of-interest within the HEK293 genome via a long-range PCR; conditions: 2.5 μM substrate, 2 min, HEK293
SLC22A15 = target: T4, SLC22A15 (Homo sapiens, UniProt Q8IZD6); experiment: Uptake ratio screen, SLC22A15-overexpressing HEK293 over empty vector cells; format: cell-based; conditions: 2.5 μM (nicotine 10 μM), 2 min
T4 construct: by amplifying the entire gene-of-interest within the HEK293 genome via a long-range PCR
Description: as §1, §2, §5, §4

SLC35F2 = target: T5, SLC35F2 (Homo sapiens, UniProt Q8IXU6); conditions: SLC35F2; ratio of Vmax over KM
T5 sequence (Q8IXU6 1-374): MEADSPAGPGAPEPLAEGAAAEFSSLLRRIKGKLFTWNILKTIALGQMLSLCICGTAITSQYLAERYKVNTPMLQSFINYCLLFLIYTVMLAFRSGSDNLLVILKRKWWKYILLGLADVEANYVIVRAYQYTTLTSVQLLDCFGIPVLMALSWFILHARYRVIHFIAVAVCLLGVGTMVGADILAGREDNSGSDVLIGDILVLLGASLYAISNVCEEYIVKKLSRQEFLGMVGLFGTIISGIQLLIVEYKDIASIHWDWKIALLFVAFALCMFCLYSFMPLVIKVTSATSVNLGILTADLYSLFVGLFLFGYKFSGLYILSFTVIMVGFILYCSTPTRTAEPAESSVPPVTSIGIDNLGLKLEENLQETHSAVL

SLC35E2A [2] = target: T6, SLC35E2A (Homo sapiens, UniProt P0CK97); conditions: ratio of Vmax over KM
SLC35F5 = target: T7, SLC35F5 (Homo sapiens, UniProt Q8WV83); experiment: Uptake ratio screen, SLC35F5-overexpressing HEK293 over empty vector cells; format: cell-based; design: by amplifying the entire gene-of-interest within the HEK293 genome via a long-range PCR; conditions: 2.5 μM, 2 min
T7 sequence (Q8WV83 1-523): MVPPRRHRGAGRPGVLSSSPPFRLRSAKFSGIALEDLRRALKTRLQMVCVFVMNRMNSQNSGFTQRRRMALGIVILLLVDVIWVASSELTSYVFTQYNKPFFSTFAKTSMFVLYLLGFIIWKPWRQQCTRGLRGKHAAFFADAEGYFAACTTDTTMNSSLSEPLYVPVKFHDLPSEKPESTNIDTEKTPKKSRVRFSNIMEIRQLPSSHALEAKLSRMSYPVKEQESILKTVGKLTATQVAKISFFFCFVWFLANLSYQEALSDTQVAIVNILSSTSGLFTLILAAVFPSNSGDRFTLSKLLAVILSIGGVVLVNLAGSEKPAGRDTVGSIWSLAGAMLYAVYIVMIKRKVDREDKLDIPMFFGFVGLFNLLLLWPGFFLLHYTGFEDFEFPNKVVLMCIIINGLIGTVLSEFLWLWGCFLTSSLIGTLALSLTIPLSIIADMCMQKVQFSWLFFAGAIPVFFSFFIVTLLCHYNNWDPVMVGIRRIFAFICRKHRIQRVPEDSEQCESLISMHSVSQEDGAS
Description: as §1, §2, §5, §4

SLC35E2A [3] = target: T6, SLC35E2A; experiment: Uptake ratio screen, SLC35E2A-overexpressing HEK293 over empty vector cells; format: cell-based; design: by amplifying the entire gene-of-interest within the HEK293 genome via a long-range PCR; conditions: 2.5 μM, 2 min
Description: as §1, §2, §3, §4

SLC35G3 [4] = target: T3, SLC35G3; conditions: ratio of Vmax over KM

T3 sequence (Q8N808 whole entry): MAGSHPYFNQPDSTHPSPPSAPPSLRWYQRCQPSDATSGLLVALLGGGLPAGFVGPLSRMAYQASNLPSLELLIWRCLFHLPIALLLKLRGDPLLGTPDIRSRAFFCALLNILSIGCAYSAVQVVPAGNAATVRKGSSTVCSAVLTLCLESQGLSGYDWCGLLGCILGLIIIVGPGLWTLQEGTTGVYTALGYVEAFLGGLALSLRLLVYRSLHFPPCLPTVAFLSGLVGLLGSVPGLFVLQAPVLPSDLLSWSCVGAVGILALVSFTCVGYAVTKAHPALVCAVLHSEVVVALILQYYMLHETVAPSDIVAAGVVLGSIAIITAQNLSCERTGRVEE
T6 sequence (P0CK97 whole entry): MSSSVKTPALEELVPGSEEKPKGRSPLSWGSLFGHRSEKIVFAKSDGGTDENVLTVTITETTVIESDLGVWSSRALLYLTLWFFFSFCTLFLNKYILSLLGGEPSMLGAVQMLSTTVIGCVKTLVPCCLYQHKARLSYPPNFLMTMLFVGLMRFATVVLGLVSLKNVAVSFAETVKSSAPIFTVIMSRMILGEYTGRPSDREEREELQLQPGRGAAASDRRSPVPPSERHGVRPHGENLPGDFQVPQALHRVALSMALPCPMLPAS
SLC38A10, sequence (Q9HBR0 whole entry): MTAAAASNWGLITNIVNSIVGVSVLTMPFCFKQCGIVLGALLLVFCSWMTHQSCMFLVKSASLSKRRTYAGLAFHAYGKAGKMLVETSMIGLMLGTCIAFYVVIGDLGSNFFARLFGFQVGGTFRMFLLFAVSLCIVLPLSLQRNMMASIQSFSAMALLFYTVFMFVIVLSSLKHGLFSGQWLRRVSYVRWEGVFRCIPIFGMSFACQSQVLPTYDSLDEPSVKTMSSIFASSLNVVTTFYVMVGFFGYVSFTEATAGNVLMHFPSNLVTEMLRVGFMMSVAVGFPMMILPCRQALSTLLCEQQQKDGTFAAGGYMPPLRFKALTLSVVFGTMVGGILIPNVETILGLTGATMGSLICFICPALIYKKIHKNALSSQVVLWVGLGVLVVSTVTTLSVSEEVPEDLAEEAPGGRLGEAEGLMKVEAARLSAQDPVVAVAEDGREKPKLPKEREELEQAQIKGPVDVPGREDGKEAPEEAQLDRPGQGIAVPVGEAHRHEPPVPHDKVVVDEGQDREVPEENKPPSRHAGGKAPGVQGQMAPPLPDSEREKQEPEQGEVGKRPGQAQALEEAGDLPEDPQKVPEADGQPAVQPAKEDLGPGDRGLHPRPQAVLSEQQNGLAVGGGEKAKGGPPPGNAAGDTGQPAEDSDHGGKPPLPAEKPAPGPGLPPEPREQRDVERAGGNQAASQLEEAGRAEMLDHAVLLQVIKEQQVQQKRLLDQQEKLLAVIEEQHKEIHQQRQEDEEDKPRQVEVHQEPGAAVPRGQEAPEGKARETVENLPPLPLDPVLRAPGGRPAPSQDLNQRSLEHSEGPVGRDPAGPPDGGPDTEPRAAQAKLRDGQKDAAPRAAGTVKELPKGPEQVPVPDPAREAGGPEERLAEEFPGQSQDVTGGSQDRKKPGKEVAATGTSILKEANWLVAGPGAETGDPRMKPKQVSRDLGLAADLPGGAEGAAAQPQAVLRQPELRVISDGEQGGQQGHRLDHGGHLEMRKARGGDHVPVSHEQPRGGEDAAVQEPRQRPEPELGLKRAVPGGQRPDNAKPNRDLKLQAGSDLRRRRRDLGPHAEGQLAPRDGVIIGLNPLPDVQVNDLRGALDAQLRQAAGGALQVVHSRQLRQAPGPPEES
T4 sequence (Q8IZD6 whole entry): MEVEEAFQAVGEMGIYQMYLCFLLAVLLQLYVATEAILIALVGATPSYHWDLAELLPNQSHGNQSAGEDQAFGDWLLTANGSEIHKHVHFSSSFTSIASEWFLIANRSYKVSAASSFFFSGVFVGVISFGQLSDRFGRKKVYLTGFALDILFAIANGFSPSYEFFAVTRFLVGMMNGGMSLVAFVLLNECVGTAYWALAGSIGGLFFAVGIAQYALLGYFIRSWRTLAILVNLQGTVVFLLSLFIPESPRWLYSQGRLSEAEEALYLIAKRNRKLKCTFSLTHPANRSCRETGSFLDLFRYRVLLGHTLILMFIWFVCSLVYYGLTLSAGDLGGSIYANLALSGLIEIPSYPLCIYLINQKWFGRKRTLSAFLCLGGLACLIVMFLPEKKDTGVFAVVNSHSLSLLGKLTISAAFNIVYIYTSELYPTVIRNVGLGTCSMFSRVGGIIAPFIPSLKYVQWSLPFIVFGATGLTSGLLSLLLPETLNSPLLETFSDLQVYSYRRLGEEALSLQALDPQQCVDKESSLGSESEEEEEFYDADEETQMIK

CN(C)CCOC(c1ccccc1)c1ccccc1 [Diphenhydramine]
Share of substrates exchanged (antiport) (hCMEC/D3 cell line): approximately 60%

N[C@@H](CCC(=O)O)C(=O)O [glutamic acid]
Uptake by SLC38A10 compared with empty-vector-transfected cells (factor) (SLC38A10): 1.4 | Uptake by SLC35E4 (in words) (SLC35E4): minor

COC(=O)[C@H]1[C@@H](OC(=O)c2ccccc2)C[C@@H]2CC[C@H]1N2C [Cocaine]
Uptake by SLC35F4 (in words) (SLC35F4): enhanced cell uptake | Uptake data for SLC35G3, mean value (fold-increase over empty vector control) (SLC35G3 [1]): 2.02 | Uptake by SLC22A15 (in words) (SLC22A15): significantly increased the uptake | Clint (±SEM) (SLC35F2): 2.58 (±2.11) μl × mg protein^-1 × min^-1 | Clint (±SEM) (SLC35E2A [2]): 4.14 (±1.59) μl × mg protein^-1 × min^-1 | Uptake by SLC35F5 (in words) (SLC35F5): highest uptake rates | Uptake by SLC35E2A (in words) (SLC35E2A [3]): relatively high activity | Clint (±SEM) (SLC35G3 [4]): 1.59 (±0.57) μl × mg protein^-1 × min^-1
